Each structure is given as a SMILES string. Read-outs that look alike come from different tables or passages of the source.

One experiment addresses T1, WT FLT3 (Homo sapiens, UniProt P36888).
T1 construct: purchased Invitrogen PR4666C
T1 sequence (P36888 564-993 limits assumed): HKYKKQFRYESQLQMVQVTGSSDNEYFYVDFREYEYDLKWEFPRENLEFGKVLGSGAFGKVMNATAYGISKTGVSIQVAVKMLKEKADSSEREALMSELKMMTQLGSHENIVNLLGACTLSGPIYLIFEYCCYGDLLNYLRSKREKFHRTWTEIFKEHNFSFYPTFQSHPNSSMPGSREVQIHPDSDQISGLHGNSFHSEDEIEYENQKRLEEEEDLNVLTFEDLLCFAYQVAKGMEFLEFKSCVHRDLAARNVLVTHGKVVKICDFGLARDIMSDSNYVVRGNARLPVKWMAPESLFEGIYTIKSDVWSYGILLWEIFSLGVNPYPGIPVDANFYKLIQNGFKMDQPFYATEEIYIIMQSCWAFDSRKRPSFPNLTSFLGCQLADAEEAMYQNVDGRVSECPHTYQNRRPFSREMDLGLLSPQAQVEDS
Briefly: WT FLT3 Lance Ultra TR-FRET kinase assay. Type of experiment: biochemical. The source says: (§1) High throughput 384-well Lance Ultra TR-FRET based kinase assays were established for the WT FLT3 and FLT3-ITD enzymes and employed a ULight-labeled peptide […] and FLT3 proteins labelled with Eu-conjugated antibody […] (WuXi Aptec). The principle of TR-FRET is based on transfer of energy between a donor and acceptor fluorophore that results when the fluorophores are within close proximity (˜100 Å) of each other. Recombinant WT FLT3 (#PR4666C, M.W. 48.6 kDa) was purchased from Invitrogen and FLT3-ITD (FLT3-ITD-W51, #F-12-12CG-10, M.W. 76 kDa) was purchased from Signalchem. Optimal assay conditions for the WT FLT3 enzyme assay were as follows: 0.5 nM FLT3 protein, 50 nM ULight-JAK-1 (Tyr1023) substrate peptide (PerkinElmer #TRF0121), 100 μM ATP, 60 min reaction time. Optimal assay conditions for the FLT3-ITD enzyme assay were as follows: 0.0625 nM FLT3-ITD protein, 50 nM ULight-JAK-1 (Tyr1023) substrate peptide, 50 μM ATP, 90 min reaction time. Briefly, 11 dose 3× serial dilutions were prepared for the test compounds and the reference compound and 100 nanoliters transferred to appropriate wells of 384-well assay plates. Five microliters of 2× enzyme/peptide were added into assay wells, assay plates centrifuged at 1000 rpm for about 30 seconds, sealed with sealing film and incubated for 30 min at 23° C. Assay buffer comprised 50 mM HEPES (pH 7.5), 1 mM EDTA, 0.01% Brij-35, 10 mM MgCl2 and 2 mM DTT. Next 5 μl of a 2× ATP mixture were added into the assay wells and the plates centrifuged at 1000 rpm about 30 seconds, sealed with sealing film and incubated for 23° C. for appropriate duration. Following assay incubation (30 min for WT FLT3 and 60 min for FLT3-ITD) 10 μl 2× Detection Mixture (Eu-W1024 Anti-phosphotyrosine (PT66) 2 nM and EDTA 10 mM) was added to assay wells, assay plates centrifuge at 1000 rpm about 1 minutes, sealed with sealing film and incubated at 23° C. for 60 minutes. Assay plates were read on a Perkin Elmer Envision reader at two wavelengths (665/615) and the ratio of […] calculated.
(§2) Data was expressed as % of inhibition relative to the vehicle control and calculated as follows:
(§3) Results were analyzed by XLFIT5 as % inhibition vs. log [compound concentration] and IC50 values were calculated by non-linear regression using four parameter-logistic equation. Fit=(A+((B−A)/(1+((C/x)^D)))). Res=(y−fit).

The test system of the next experiment is MV-4-11. As to the kind of experiment: Proliferation inhibition, CellTiter-Glo, MV-4-11. Type of experiment: cell-based, human. To be noted: for IC50: Homo sapiens. A digest of the protocol:
(§4)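 About 10,000 cells per well in RPMI-1640 with 10% FBS. Compounds added 2 h after seeding at eight concentrations in duplicate (0.2% DMSO as 100% proliferation), then incubated ~96 h at 37° C, 5% CO2. ATP measured by CellTiter-Glo luminescence; IC50 from four-parameter logistic fit.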

Another experiment addresses T2, FLT3-ITD (Homo sapiens, UniProt P36888, DUP595-601).
T2 construct: purchased Signalchem F-12-12CG-10
T2 sequence (P36888 with tags, fused parts or gaps DUP595-601 limits assumed): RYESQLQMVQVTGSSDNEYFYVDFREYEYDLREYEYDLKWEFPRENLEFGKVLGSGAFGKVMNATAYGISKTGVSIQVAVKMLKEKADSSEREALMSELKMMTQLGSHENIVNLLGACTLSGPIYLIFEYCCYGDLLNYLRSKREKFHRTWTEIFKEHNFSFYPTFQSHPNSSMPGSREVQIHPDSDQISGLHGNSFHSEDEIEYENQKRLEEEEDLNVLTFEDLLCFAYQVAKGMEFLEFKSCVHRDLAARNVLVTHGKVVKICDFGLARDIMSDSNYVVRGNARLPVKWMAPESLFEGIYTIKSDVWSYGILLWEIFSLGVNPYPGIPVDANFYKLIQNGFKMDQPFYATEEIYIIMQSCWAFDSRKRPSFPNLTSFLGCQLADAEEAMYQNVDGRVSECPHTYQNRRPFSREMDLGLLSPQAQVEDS
As to the kind of experiment: FLT3-ITD Lance Ultra TR-FRET kinase assay. The experiment is classed as biochemical.
Description: as §1, §2, §3

A further experiment has as its system MOLM-13. Briefly: Proliferation inhibition, CellTiter-Glo, MOLM-13. The experiment is classed as cell-based, human. To be noted: for IC50: Homo sapiens, MOLM-13 cells. A digest of the protocol:
as §4

The test system of a further experiment is K-562. Briefly: Proliferation inhibition, CellTiter-Glo, K-562. Type of experiment: cell-based, human. To be noted: for IC50: Homo sapiens. A digest of the protocol: as §4
Where [1] appears, read: MV4-11, 96 h, MV-4:11 cells, IC50 (4 days), CellTiter-Glo, read-out: MV-4:11 IC50.
The mark [2] stands for this setting: 96 h, IC50 (4 days), CellTiter-Glo, read-out: MOLM-13 IC50.
Where [3] appears, read: K562, 96 h, K-562 cells, IC50 (4 days), CellTiter-Glo, read-out: K-562 IC50.

For `CCc1nc(Nc2cccc([C@@H](C)CNC(=O)CN(C)C(=O)/C=C/CN(C)C)c2)c(C(N)=O)nc1CC` [Compound 503, (R, E)-3-((3-(1-(2-(4-(dimethylamino)-N-methylbut-2-enamido)acetamido)propan-2-yl)phenyl)amino)-5,6-diethylpyrazine-2-carboxamide], the IC50 against WT FLT3 is 0.201 to 0.5 nM; in the experiment with MV-4-11 (setting [1]), < 1 nM; on FLT3-ITD, 0.501 to 1 nM; in the experiment on MOLM-13 (setting [2]) it was < 1 nM; with K-562 (setting [3]), > 500 nM.
For the compound `C=Cc1nc(C(N)=O)c(Nc2cccc(CCNC(=O)CN(C)C(=O)/C=C/CN(C)C)c2)nc1N(C)C(C)C` [Compound 328, (E)-3-((3-(2-(2-(4-(dimethylamino)-N-methylbut-2-enamido)acetamido)ethyl)phenyl)amino)-5-(isopropyl(methyl)amino)-6-vinylpyrazine-2-carboxamide], the IC50 on WT FLT3 is 0.201 to 0.5 nM; in the experiment on MV-4-11 (setting [1]), < 1 nM; at FLT3-ITD, 0.201 to 0.5 nM; in the experiment on MOLM-13 (setting [2]), 10 to 100 nM; with K-562 (setting [3]), > 500 nM.
Consider `CCc1nc(C(N)=O)c(Nc2cncc(CCNC(=O)[C@H](C)N(C)C(=O)/C=C/CN(C)C)c2)nc1C1CC1` [Compound 306, (S, E)-5-cyclopropyl-3-((5-(2-(2-(4-(dimethylamino)-N-methylbut-2-enamido)propanamido)ethyl)pyridin-3-yl)amino)-6-ethylpyrazine-2-carboxamide], for which the concentration for half-maximal inhibition (IC50) at WT FLT3 is 0.501 to 1 nM; with MV-4-11 (setting [1]) it was 1 to 10 nM; on FLT3-ITD it was > 1 nM; with MOLM-13 (setting [2]), 1 to 10 nM.
In the case of `CCc1nc(C(N)=O)c(Nc2ccnc(CCNC(=O)CN(C)C(=O)/C=C/CN(C)C)c2)nc1N(C)CC` [Compound 606, (E)-3-((2-(2-(2-(4-(dimethylamino)-N-methylbut-2-enamido)acetamido)ethyl)pyridin-4-yl)amino)-6-ethyl-5-(ethyl(methyl)amino)pyrazine-2-carboxamide], the IC50 at WT FLT3 was 0.501 to 1 nM; with MV-4-11 (setting [1]) it was < 1 nM; on FLT3-ITD it was 0.201 to 0.5 nM; in the experiment with MOLM-13 (setting [2]), 1 to 10 nM; with K-562 (setting [3]) it was > 500 nM.
For `CCc1nc(C(N)=O)c(Nc2cccc(CCNC(=O)[C@H](C)N(C)C(=O)/C=C/CNC)c2)nc1NC(C)C` [Compound 303, (S, E)-6-ethyl-5-(isopropylamino)-3-((3-(2-(2-(N-methyl-4-(methylamino)but-2-enamido)propanamido)ethyl)phenyl)amino) pyrazine-2-carboxamide], the 50% inhibitory concentration (IC50) is 0.201 to 0.5 nM against WT FLT3; < 1 nM in the experiment on MV-4-11 (setting [1]); 0.201 to 0.5 nM against FLT3-ITD; < 1 nM with MOLM-13 (setting [2]); > 500 nM in the experiment with K-562 (setting [3]).
With `Cc1nc(C(N)=O)c(Nc2cc(F)cc(CCNC(=O)[C@H](C)N(C)C(=O)/C=C/CN(C)C)c2)nc1C1CC1` [Compound 254, (S,E)-5-cyclopropyl-3-((3-(2-(2-(4-(dimethylamino)-N-methylbut-2-enamido)propanamido)ethyl)-5-fluorophenyl)amino)-6-methylpyrazine-2-carboxamide], the 50% inhibitory concentration (IC50) on WT FLT3 was 0.501 to 1 nM; in the experiment on MV-4-11 (setting [1]), < 1 nM; at FLT3-ITD, 0.501 to 1 nM; with MOLM-13 (setting [2]), 1 to 10 nM; in the experiment on K-562 (setting [3]), > 500 nM.
`C=CC(=O)Nc1cc(Nc2nc(NC3CCOCC3)c(CC)nc2C(N)=O)ccc1N1CCC(N2CCN(C)CC2)CC1` [Compound C-2, reference compound]: the half-maximal inhibitory concentration (IC50) was 0.501 to 1 nM against WT FLT3; 1 to 10 nM in the experiment on MV-4-11 (setting [1]); 5 nM in the experiment on MV-4-11 (MV4-11 cells, read-out: IC50 in MV4-11 cells); 0.501 to 1 nM against FLT3-ITD; 10 to 100 nM in the experiment with MOLM-13 (setting [2]); 19.2 nM with MOLM-13 (read-out: IC50 in MOLM-13 cells). Moreover, the 50% inhibitory concentration (IC50) was 10 to 100 nM with K-562 (setting [3]) and 44 nM in the experiment with K-562 (K562 cells, read-out: IC50 in K562 cells). For the same compound, the “Ymax in MV4-11 cells” value with MV-4-11 (MV4-11 cells) is reported as 99.1%. Besides, in the experiment on MOLM-13, the “Ymax in MOLM-13 cells” value came out at 98.6%. In the experiment with K-562 (K562 cells), the “Ymax in K562 cells” value turned out to be 95.8%.
With `Cc1nc(C(N)=O)c(Nc2cccc(CCNC(=O)[C@H](C)N(C)C(=O)/C=C/CN(C)C)c2)nc1C(C)C` [Compound 305, (S,E)-3-((3-(2-(2-(4-(dimethylamino)-N-methylbut-2-enamido)propanamido)ethyl)phenyl)amino)-5-isopropyl-6-methylpyrazine-2-carboxamide], the IC50 is > 1 nM against WT FLT3; 1 to 10 nM in the experiment on MV-4-11 (setting [1]); > 1 nM at FLT3-ITD; 1 to 10 nM in the experiment on MOLM-13 (setting [2]); > 500 nM in the experiment on K-562 (setting [3]).
With `C=CC(=O)N(C)CC(=O)NCCc1cccc(Nc2nc(N(C)CC)c(CC)nc2C(N)=O)c1` [Compound 511, 6-ethyl-5-(ethyl(methyl)amino)-3-((3-(2-(2-(N-methylacrylamido)acetamido)ethyl)phenyl)amino) pyrazine-2-carboxamide], the IC50 against WT FLT3 was 0.201 to 0.5 nM; in the experiment with MV-4-11 (setting [1]), 1 to 10 nM; against FLT3-ITD, ≤ 0.1 nM; in the experiment on MOLM-13 (setting [2]), < 1 nM; in the experiment with K-562 (setting [3]) it was > 500 nM.
For `CCc1nc(C(N)=O)c(Nc2cccc(CCNC(=O)[C@@H](C)N(C)C(=O)/C=C/CN(C)C)c2)nc1N(C)C(C)C` [Compound 302, (R,E)-3-((3-(2-(2-(4-(dimethylamino)-N-methylbut-2-enamido)propanamido)ethyl)phenyl)amino)-6-ethyl-5-(isopropyl (methyl)amino) pyrazine-2-carboxamide], the half-maximal inhibitory concentration (IC50) on WT FLT3 is > 1 nM; in the experiment with MV-4-11 (setting [1]), < 1 nM; against FLT3-ITD it was > 1 nM; in the experiment on MOLM-13 (setting [2]), 1 to 10 nM; in the experiment on K-562 (setting [3]), > 500 nM.
Take `CCc1nc(C(N)=O)c(Nc2ccnc(CCNC(=O)CN(C)C(=O)/C=C/CN3CCC3)c2)nc1C1CC1` [Compound 520, (E)-3-((2-(2-(2-(4-(azetidin-1-yl)-N-methylbut-2-enamido)acetamido)ethyl)pyridin-4-yl)amino)-5-cyclopropyl-6-ethylpyrazine-2-carboxamide]: the IC50 against WT FLT3 is > 1 nM; in the experiment on MV-4-11 (setting [1]), 1 to 10 nM; against FLT3-ITD it was 0.501 to 1 nM; in the experiment on MOLM-13 (setting [2]), 1 to 10 nM; with K-562 (setting [3]), > 500 nM.

Source of the values: patent US20240262795A1, “PYRAZINE COMPOUNDS AS INHIBITORS OF FLT3” (Biomea Fusion, Inc., priority 2021, published 2024).
